Test results from US20130053347A1, “PRO-DRUGS OF AMARYLLIDACEAE ISOCARBOSTYRIL PRODUCTS AND THEIR USE AGAINST BRAIN TUMORS” (Universite Libre de Bruxelles, priority 2010, published 2013).

How the values were obtained:
[1] = test system: VM-48 human brain metastatic melanoma cells grafted into the brain of nude mice; assay: melanoma brain metastasis model, survival; assay type: in vivo; settings: VM-48 in brain; intravenously 1 mg/kg twice a week during 3 consecutive weeks
mice = settings: cited from earlier work
[2] = test system: Hs683 human glioblastoma cells grafted into the brain of nude mice; assay: human glioblastoma orthotopic model, survival; assay type: in vivo; settings: 1 mg/kg once or twice per week during 5 consecutive weeks, intravenous or oral; two glioblastoma models (Hs683; GL-19 in FIG. 5)
Description: FIG. 5: anti-tumor effects of Narciclasine versus temozolomide in human primary brain tumor models. A and B: hematoxilin eosin staining of the brain tumors that developed into the brain of nude mice after intracranial graft of Hs683 and GL-19 human glioblastoma cells (NB: normal brain). Anti-tumor effects were evaluated in terms of animal survival in C and D. TMZ: temozolomide; schedule of administration is mentioned between brackets (“aXb” meaning “a” administrations per week during “b” weeks).
We evaluated the anti-cancer effects of Narciclasine at non toxic dose in two human glioblastoma (primary brain tumors) models (Hs683-model) that we grafted orthotopically directly into the brain of nude mice. […] The therapeutic schedule used here is even lower (one or two injections per week instead of 5 per week) and the administration route was intravenous or oral. […] The few promising NCI results have been obtained at doses higher than 1 mg/kg administered intraperitoneally or subcutaneously.

cancer cells = settings: cited from earlier work
[3] = test system: human melanoma VM-21 cells grafted subcutaneously; assay: subcutaneous melanoma model, survival; assay type: in vivo; settings: VM-21 subcutaneous, nude mice; Narciclasine per os
Description: FIG. 7: anti-tumor effects of Narciclasine in human melanoma models. The left panel illustrates typical hematoxilin eosin staining of subcutaneous tumor and lung metastasis developed when VM-21 human melanoma cells are grafted subcutaneously in nude mice and their corresponding survival analysis. Narciclasine was administered per os while dacarbazine was administered intra-peritoneally. Doses and schedules appear on the graphs (ai X bw meaning “a” administrations per week during “b” weeks). The right panel illustrates typical hematoxilin eosin staining of human melanoma brain tumor developed into the brain when VM-48 human brain metastatic melanoma cells are grafted into the brain of nude mice and their corresponding survival analysis. Narciclasine and temozolomide (TMZ) were administered per os. Doses and schedules appear on the graphs (same legend than left panel).
Similarly, we grafted subcutaneously human melanoma VM-21 cells. This graft leads to tumor formation and further lung metastases as illustrated in FIG. 7. […] VM-48 cells have been isolated from a human brain metastasis of melanoma. We grafted those cells in their original environment, i.e. the brain to mimic human melanoma brain metastasis (FIG. 7).

[4] = test system: human NSCLC A549 cells grafted into the lungs of nude mice; assay: NSCLC model, cells grafted into the lungs, survival; assay type: in vivo; settings: A549 in lungs; Taxol 20 mg/kg, Narciclasine 1 mg/kg once per week during 5 consecutive weeks
Description: (§1) FIG. 6: anti-tumor effects of Narciclasine versus taxol in human NSCLC (non small cell lung carcinoma) models. The left panel illustrates the lungs of mice bearing lung tumor (tumor tissue is the white nodular one; pink part is the residual normal lung tissue) and hematoxilin eosin staining of the lung tumor (middle) and the brain metastasis that developed into the brain of nude mice after the graft of A549 human NSCLC cells into the lung (lower panel). Anti-tumor effects were evaluated in terms of animal survival when cells are grafted into the lungs (upper right graph) or directly into the brain (right lower panel). Taxol (dose: 20 mg/kg) and Narciclasine (dose: 1 mg/kg) were administered once per week during 5 consecutive weeks.
(§2) We tested also the anti-cancer effects of Narciclasine in non small cell lung carcinoma models (NSCLC). When human NSCLC A549 cells are grafted into the lungs of nude mice, those later develop lung tumors leading after to liver and brain metastases in 80% of the cases (Mathieu A et al, Cancer 2004).

[5] = cited from earlier work
[6] = test system: A549 cells grafted directly into the brain of nude mice; assay: NSCLC cells grafted into the brain, survival; assay type: in vivo, human; settings: A549 in brain; Taxol 20 mg/kg, Narciclasine 1 mg/kg once per week during 5 consecutive weeks
Description: as §1, §2

Compound: O=C1N[C@@H]2C(=C[C@H](O)[C@@H](O)[C@H]2O)c2cc3c(c(O)c21)OCO3 [Narciclasine]
- animal survival [1]: significant increase in terms of animal survival
- maximal dose that can be administered without being toxic (mice; mice): around 1 mg/kg
- safe chronical dose (mice; mice): 1 mg/kg
- toxicity (mice; rodents, 1 mg/kg 5 times per week during three weeks at least): without any toxicity
- therapeutic benefit in terms of survival [2]: significant and comparable therapeutic benefits
- IC50 (cancer cells): 50 nM
- survival benefit [3]: could not bring any survival benefit
- survival of the animals [4]: did not bring any increase in the survival
- plasmatic concentrations ([5]; 5 mg/kg dose, for few hours only): > 50 nM
- oral bioavailability ([5]; mouse, in vivo, po): 32%
- survival benefits [6]: highly and significantly effective

Compound: CC(=O)O[C@H]1C(=O)[C@@]2(C)[C@H]([C@H](OC(=O)c3ccccc3)[C@]3(O)C[C@H](OC(=O)[C@H](O)[C@@H](NC(=O)c4ccccc4)c4ccccc4)C(C)=C1C3(C)C)[C@]1(OC(C)=O)CO[C@@H]1C[C@@H]2O [taxol]
- survival of the animals [4]: did significantly
- survival benefits [6]: became inefficient
